Measured values as given in patent publication US20060160095A1, “Survivin” (EiRx Therapeutics Limited, priority 2002, published 2006).

Key:
Assay type in all cases: cell-based, human
[1] = system: Survivin mRNA; assay: LifeGrid microarray of Survivin transcripts in neutrophils; details: between 2 and 6 h following addition of GM-CSF
Method: Primary human neutrophils are isolated and purified from peripheral blood of normal healthy individuals using standard techniques. Neutrophils are resuspended in serum containing culture medium together with GM-CSF (50 U) at a concentration of 2×10^6/ml, and cultured for 0 h (control), 2 h, 4 h and 6 h at 37° C. Total RNA is then prepared from both groups using acid phenol/guanidine isothiocyanate extraction (RNAzol B; Biogenesis), or RNeasy RNA preparation kits (Qiagen). Any contaminating genomic DNA is removed by DNase treatment (DNase I, Gibco-BRL). […]
This example describes the use of a STORM Phosphoimager to quantitatively image positive signals across the filter arrays. […]
The captured image file is then analysed using software such as Array Vision (Imaging Research Inc.; See FIG. 5). […] This program contains facilities for spot detection and quantification, and background detection and quantification. […] As the data is imported to the database, a Normalisation factor is calculated and the sDENs values modified accordingly. […] A normalization factor may be derived from Linear Regression calculated by reference to housekeeping genes. Alternatively, the Global Mean is calculated as the average of the sDens values across all of the arrays to be compared and a normalisation factor is then derived by division of the overall spot density with the Global Mean value. […]

[2] = system: Survivin mRNA; assay: Real-time PCR quantification of survivin mRNA in neutrophils; details: cytokine added in vitro; A549 standard = 100%
Method: Neutrophils are cultured at 1×10^6 per ml in complete culture medium. GM-CSF (50 ng/ml; kind gift of T. Hartung, University of Konstanz, Konstanz, Germany) or G-CSF (25 ng/ml; PeproTech, BioConcept, Allschwil, Switzerland) are added. The duration of GM-CSF or G-CSF stimulation is indicated in each experiment.
Neutrophils (1×10^7) are washed with PBS and the RNA is isolated according to the RNeasy protocol (Qiagen AG, Basel, Switzerland), which includes DNase digestion. RNA is reverse transcribed with the first strand cDNA synthesis kit (Amersham Pharmacia Biotech) by using random hexanucleotides according to the manufacturer's instructions. Real-time monitoring of PCR amplification of survivin cDNA is performed with a 1/100 dilution of neutrophil cDNA as previously described (Olie et al. (2000) Cancer Research 60, 2805-2809). Relative quantification of survivin expression is performed as described (Olie et al. (2000) Cancer Research 60, 2805-2809) utilizing rRNA as an internal standard.
The 20-mer first generation antisense oligonucleotide 4003 targeting the survivin mRNA has been described above. The second generation 2′-O-methoxy-ethoxy (2′-MOE) gapmer version of 4003 (as) and its 3-base mismatch sequence control (ms) are synthesized using an Applied Biosystems 394B automated DNA synthesizer as described (De Mesaeker et al. (1995) Acc. Chem. Res. 28, 366-374). Sequences are as follows: antisense survivin, cscscsasgsCsCsTsTsCsCsAsGsCsTscscststsg; mismatch survivin, cscstsasgsCsCsTsTsCsCsAsGsGsTscscstsasg. Small letters refer to 2′-O-(2-methoxy)-ethyl-modified nucleotides, capital letters to DNA, and “s” refers to phosphorothioate linkages. Cells isolated and cultured as described above are treated with survivin antisense oligonucleotides (as) or survivin mismatch control oligonucleotides (ms) at the indicated concentrations. In the experiments in which GM-CSF (50 ng/ml; kind gift of T. Hartung, University of Konstanz, Konstanz, Germany) or G-CSF (25 ng/ml; PeproTech, BioConcept, Allschwil, Switzerland) are added, the oligonucleotides are given 2 h before addition of cytokines.

[3] = system: Neutrophils; assay: Measurement of apoptosis by DNA fragmentation (propidium iodide flow cytometry); details: neutrophils cultured overnight in the presence of GM-CSF
Method: Neutrophils are isolated from the blood as described in Example 1 and resuspended at a concentration of 2×10^6/ml. Five hundred microlitres are pipetted into wells of a 24 well plate and incubated in the presence or absence of survival factors.
After this incubation, the neutrophils are carefully resuspended by gentle agitation and the total contents of the well are placed into an eppendorf and centrifuged @2800 rpm for 2 min @ RT in a minifuge. The cell pellet is carefully resuspended in 300 μl of ice cold hypotonic fluorochrome solution (50 μg/ml Propidium Iodide, 0.1% Sodium Citrate and 0.1% Triton X-100) and placed in a fridge for 24 h @ 4° C.
Prepared samples are analysed with a FacsCalibre flow cytometer (Becton Dickinson) using double discrimination to ensure single cell suspension with Log Forward and Side Scatter Parameter acquisition.

Granulocyte macrophage colony-stimulating factor [GM-CSF]
Expression of Survivin (microarray fold change) [1]: up-regulated
survivin mRNA in normal control neutrophils after cytokine addition [2]: increase in survivin mRNA
apoptosis by DNA fragmentation (G0/G1 and sub-G1 peaks) [3]: few cells in the sub-G1 peak
